Laboratory results from patent publication US11247980B2, “Herbicidal uracilpyrid” (BASF SE, priority 2017, dated 2022).

Experiments:
MATCH = experiment: greenhouse experiments, herbicidal activity, post-emergence treatment; type: in vivo, Matricaria chamomilla; conditions: application rate 8 g/ha, scale 0 to 100
Source text: (§1) The culture containers used were plastic flowerpots containing loamy sand with approximately 3.0% of humus as the substrate. The seeds of the test plants were sown separately for each species.
(§2) For the pre-emergence treatment, the active ingredients, which had been suspended or emulsified in water, were applied directly after sowing by means of finely distributing nozzles. The containers were irrigated gently to promote germination and growth and subsequently covered with transparent plastic hoods until the plants had rooted. This cover caused uniform germination of the test plants, unless this had been impaired by the active ingredients. For the post-emergence treatment, the test plants were first grown to a height of 3 to 15 cm, depending on the plant habit, and only then treated with the active ingredients which had been suspended or emulsified in water. For this purpose, the test plants were either sown directly and grown in the same containers, or they were first grown separately as seedlings and transplanted into the test containers a few days prior to treatment.
(§3) Depending on the species, the plants were kept at 10-25° C. or 20-35° C., respectively. The test period extended over 2 to 4 weeks. During this time, the plants were tended, and their response to the individual treatments was evaluated.
(§4) Evaluation was carried out using a scale from 0 to 100. […]

CHEAL = experiment: as above; type: in vivo, Chenopodium album; conditions: application rate 1 g/ha, scale 0 to 100
Source text: as §1, §2, §3, §4

BRADC = experiment: as above; type: in vivo, Brachiaria decumbens; conditions: application rate 2 g/ha, scale 0 to 100
Source text: as §1, §2, §3, §4

ALOMY = experiment: as above; type: in vivo, Alopecurus myosuroides; conditions: application rate 8 g/ha, scale 0 to 100
Source text: as §1, §2, §3, §4

ZEAMX = experiment: greenhouse experiments, post-emergence treatment, crop compatibility; type: in vivo, Zea mays; conditions: crop plants ZEAMX, application rate 2 g/ha, scale 0 to 100
Source text: as §1, §2, §3, §4

LOLMU = experiment: greenhouse experiments, herbicidal activity, post-emergence treatment; type: in vivo, Lolium multiflorum; conditions: application rate 8 g/ha, scale 0 to 100
Source text: as §1, §2, §3, §4

sensitive (w.1) = experiment: greenhouse experiment, control of resistant weeds: sensitive biotype; type: in vivo; conditions: for weed control (%) w.1: AMATA Amaranthus tamariscinus, sensitive biotype; for activity on sensitive weeds (w.1): greenhouse, scale from 0 to 100
Source text: (§5) The culture containers used were plastic flowerpots containing loamy sand with approximately 3.0% of humus as the substrate. The seeds of the test plants were sown separately for each species and/or resistant biotype. For the pre-emergence treatment, the active ingredients, which had been suspended or emulsified in water, were applied directly after sowing by means of finely distributing nozzles. The containers were irrigated gently to promote germination and growth and subsequently covered with transparent plastic hoods until the plants had rooted. This cover caused uniform germination of the test plants, unless this had been impaired by the active ingredients. For the post-emergence treatment, the test plants were first grown to a height of 3 to 15 cm, depending on the plant habit, and only then treated with the active ingredients which had been suspended or emulsified in water. For this purpose, the test plants were either sown directly and grown in the same containers, or they were first grown separately as seedlings and transplanted into the test containers a few days prior to treatment. Depending on the species, the plants were kept at 10-25° C. or 20-35° C., respectively. The test period extended over 2 to 4 weeks. During this time, the plants were tended, and their response to the individual treatments was evaluated. The evaluation was carried out by using a scale from 0 to 100. 100 means no emergence of the plants or complete destruction of at least the above-ground parts, and 0 means no damage, or normal course of growth.
(§6) The plants used in the greenhouse experiments were of the following species and biotype: […]

[1] = system: resistant weeds containing the ΔG210 mutation (w.2); experiment: greenhouse experiment, control of resistant weeds: resistant biotype; type: in vivo; conditions: for weed control (%) w.2: AMATA Amaranthus tamariscinus, PPO resistant biotype 1 (ΔG210 mutation); for activity on resistant weeds containing the ΔG210 mutation (w.2): greenhouse, scale from 0 to 100
Source text: as §5, §6

[2] = system: resistant weeds containing the ΔG210 mutation (w.3); experiment: as above; type: in vivo; conditions: for weed control (%) w.3: AMATA Amaranthus tamariscinus, PPO resistant biotype 2 (ΔG210 mutation); for activity on resistant weeds containing the ΔG210 mutation (w.3): greenhouse, scale from 0 to 100
Source text: as §5, §6

Row | SMILES | damages (MATCH) | damages (CHEAL) | damages (BRADC) | damages (ALOMY) | damages (ZEAMX) | damages (LOLMU) | weed control (%) w.1 (sensitive (w.1); use rate 2 g/ha) | weed control (%) w.1 (sensitive (w.1); use rate 4 g/ha) | weed control (%) w.2 ([1]; use rate 2 g/ha) | weed control (%) w.2 ([1]; use rate 4 g/ha) | activity on resistant weeds containing the ΔG210 mutation (w.2) [1] | weed control (%) w.3 ([2]; use rate 2 g/ha) | weed control (%) w.3 ([2]; use rate 4 g/ha) | activity on resistant weeds containing the ΔG210 mutation (w.3) [2] | activity on sensitive weeds (w.1) (sensitive (w.1))
1 | COC(=O)C(OC)Oc1ccccc1Oc1nc(-n2c(=O)cc(C(F)(F)F)n(C)c2=O)c(F)cc1Cl (centres unmarked) [compound 2, Methyl 2-[2-[[3-chloro-5-fluoro-6-[3-methyl-2,6-dioxo-4-(trifluoromethyl)pyrimidin-1-yl]-2-pyridyl]oxy]phenoxy]-2-methoxy-acetate] | 70 | 90 | 80 | 70 | 25 | 70 |  |  |  |  |  |  |  |  | 
2 | C#CCOc1cc(-n2nc3n(c2=O)CCCC3)c(Cl)cc1Cl [azafenidin, reference compound] |  |  |  |  |  |  | 88% | 100% | 62% | 78% | much weaker control of resistant in comparison to sensitive biotypes | 77% | 77% | much weaker control of resistant in comparison to sensitive biotypes | 
3 | CCOC(=O)COc1ncccc1Oc1nc(-n2c(=O)cc(C(F)(F)F)n(C)c2=O)c(F)cc1Cl [compound 7, Ethyl 2-[[3-[[3-chloro-5-fluoro-6-[3-methyl-2,6-dioxo-4-(trifluoromethyl)pyrimidin-1-yl]-2-pyridyl]oxy]-2-pyridyl]oxy]acetate] |  |  |  |  |  |  | 93% | 100% | 100% | 100% | very good activity | 100% | 100% | very good activity | very good activity
4 | CCOC(=O)COc1ccccc1Oc1nc(-n2c(=O)cc(C(F)(F)F)n(C)c2=O)c(F)cc1Cl [compound 1, Ethyl 2-[2-[[3-chloro-5-fluoro-6-[3-methyl-2,6-dioxo-4-(trifluoromethyl)pyrimidin-1-yl]-2-pyridyl]oxy]phenoxy]acetate] |  |  |  |  |  |  | 88% | 100% | 87% | 100% | very good activity | 98% | 100% | very good activity | very good activity
